Experimental data from patent US20190290673A1, “COMPOSITIONS AND METHODS FOR THE TREATMENT OF HBV INFECTION” (priority 2016, published 2019).

Experiments:
[1] = Whole body weight change in transgenic HBV mice; assay type: in vivo; settings: per os, qd x 14 d, dosage 'high'; relative to vehicle values
Procedure: (§1) The goal of this study was to evaluate the efficacy of exemplary compounds for the treatment of HBV infection in transgenic mice. Homozygous […] transgenic HBV mice (21.6±2.8 g) originally obtained from the laboratory of Dr. Frank Chisari (Scripps Research Institute, LaJolla, Calif.) and derived from founder 1.3.32 were used in this study. Female and male HBV transgenic mice were block-randomized to the treatment groups (Table 1). Compounds of Formula (Ie) and Formula (If) were administered at 0.1 mL/30-gram mouse by oral gavage. Adefovir dipivoxil (ADV) was prepared as a solution of 2 mg/mL in 0.025 M sodium citrate, wherein 0.1 mL was administered by oral gavage (per os, p.o.) per 30 g mouse for a dosage of […].
(§2) Treatment was initiated at day 1. After the last treatment on day 14, necropsy was performed to obtain tissues to assay liver HBV DNA and sera for HBV antigens HBeAg and HBsAg. Weights were obtained on days −1, 1 (day of treatment initiation), 3, 7, and 14. Data were analyzed by one-way analysis of variance. Two animals died due to oral gavage treatment at day 7, one in group 1 and another in group 3. FIGS. 2A-2B show the effect of Formula (Ie) and Formula (If) on liver HBV DNA levels using Southern blot hybridization (FIG. 2A) and semi-quantitative PCR (FIG. 2B) as compared to vehicle and ADV.

[2] = tested on: HBV; test: Efficacy for treatment of HBV infection in transgenic HBV mice (liver HBV DNA, serum HBeAg/HBsAg); assay type: in vivo; settings: per os, qd x 14 d, dosage 'high'; for liver HBV DNA levels: Southern blot hybridization and semi-quantitative PCR, compared to vehicle and ADV; for serum levels of HBeAg / serum levels of HBsAg: relative to vehicle values
Procedure: as §1, §2

Structure (SMILES) | whole body weight change [1] | liver HBV DNA levels [2] | serum levels of HBeAg [2] | serum levels of HBsAg [2]
CO[C@H]1C(O[P@](=O)(OC[C@H]2O[C@@H](n3cnc4c(N)ncnc43)CC2O)SCOC(=O)OC(C)C)[C@@H](CO)O[C@H]1n1ccc(=O)[nH]c1=O (some centres unmarked) [Formula (Ie)] | Neither Formula (Ie) or Formula (If) had an effect | lowered HBV DNA levels in the liver | Neither Formula (Ie) or Formula (If) had an effect | Neither Formula (Ie) or Formula (If) had an effect
CO[C@H]1C(O[P@@](=O)(OC[C@H]2O[C@@H](n3cnc4c(N)ncnc43)CC2O)SCOC(=O)OC(C)C)[C@@H](CO)O[C@H]1n1ccc(=O)[nH]c1=O (some centres unmarked) [Formula (If)] | Neither Formula (Ie) or Formula (If) had an effect | lowered HBV DNA levels in the liver | Neither Formula (Ie) or Formula (If) had an effect | Neither Formula (Ie) or Formula (If) had an effect
